Measurements taken from the supplement of paper PMC10307832.

Columns and labels:
Assay in all cases: relative viability (nuclei count vs DMSO), 5 days (fraction); higher = more cells survive
[1] = compound: CCc1c2c(nc3ccc(OC(=O)N4CCC(N5CCCCC5)CC4)cc13)-c1cc3c(c(=O)n1C2)COC(=O)[C@]3(O)CC [Irinotecan] + CC(C)C[C@H](NC(=O)[C@H](Cc1ccccc1)NC(=O)c1cnccn1)B(O)O [Bortezomib] (partner 0.002 µM)
Method in brief: (§1)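 Lung cancer cell lines were pin-tool dosed in 1536-well plates on the day after seeding, with either a lone drug or a fixed anchor-drug dose plus five library-drug doses (not always all listed) in √10 steps. Nuclei were counted on 4× images after 5 days. Relative viability is the ratio of treated-well to vehicle-well nuclei counts, with each value a median of duplicate plates.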

[2] = compound: Cn1cc(-c2cnc3ccc4ccc(CS(=O)(=O)NCc5ccccn5)cc4c(=O)c3c2)cn1 [MK-8033] + COc1cc2c(Oc3ccc(NC(=O)C4(C(=O)Nc5ccc(F)cc5)CC4)cc3F)ccnc2cc1OCCCN1CCOCC1 [Foretinib] (partner 0.25 µM)
Method in brief: as §1

[3] = compound: Cn1cc(-c2cnc3ccc4ccc(CS(=O)(=O)NCc5ccccn5)cc4c(=O)c3c2)cn1 [MK-8033] + CS(=O)(=O)CCNCc1ccc(-c2ccc3ncnc(Nc4ccc(OCc5cccc(F)c5)c(Cl)c4)c3c2)o1 [Lapatinib] (partner 2 µM)
Method in brief: as §1

[4] = compound: Cn1cc(-c2cnc3ccc4ccc(CS(=O)(=O)NCc5ccccn5)cc4c(=O)c3c2)cn1 [MK-8033] + C[C@@H](Oc1cc(-c2cnn(C3CCNCC3)c2)cnc1N)c1c(Cl)ccc(F)c1Cl [Crizotinib] (partner 1 µM)
Method in brief: as §1

NCI-H1975 showed a relative viability ([1]; first compound 0.6325 µM) of 0.294, a relative viability ([1]; first compound 2 µM) of 0.31 and a relative viability ([1]; first compound 6.325 µM) of 0.278. The relative viability ([1]; first compound 20 µM) was 0.129, the relative viability ([2]; first compound 0.02 µM) was 0.944 and the relative viability ([2]; first compound 0.06325 µM) was 0.944. The relative viability ([2]; first compound 0.2 µM) was 0.875, the relative viability ([2]; first compound 2 µM) was 1 and the relative viability ([3]; first compound 0.02 µM) was 0.829. The relative viability ([3]; first compound 0.06325 µM) was 0.795, the relative viability ([3]; first compound 0.2 µM) was 0.801 and the relative viability ([3]; first compound 0.6325 µM) was 0.844. It also gave a relative viability ([3]; first compound 2 µM) of 0.826, a relative viability ([4]; first compound 0.02 µM) of 0.896 and a relative viability ([4]; first compound 0.06325 µM) of 0.924. For the same cell line, the relative viability ([4]; first compound 0.2 µM) was 0.934, the relative viability ([4]; first compound 0.6325 µM) was 1.06 and the relative viability ([4]; first compound 2 µM) was 0.952.

In the case of NCI-H650, the relative viability ([1]; first compound 0.6325 µM) is reported as 0.689, the relative viability ([1]; first compound 2 µM) is reported as 0.507 and the relative viability ([1]; first compound 6.325 µM) is reported as 0.262. The relative viability ([1]; first compound 20 µM) was 0.385, the relative viability ([2]; first compound 0.02 µM) was 1.06 and the relative viability ([2]; first compound 0.06325 µM) was 1.08. It also gave a relative viability ([2]; first compound 0.2 µM) of 1.02, a relative viability ([2]; first compound 0.6325 µM) of 1.02 and a relative viability ([2]; first compound 2 µM) of 1.02. For the same cell line, the relative viability ([3]; first compound 0.02 µM) was 0.759, the relative viability ([3]; first compound 0.06325 µM) was 0.966 and the relative viability ([3]; first compound 0.2 µM) was 0.838. The relative viability ([3]; first compound 0.6325 µM) was 0.845, the relative viability ([3]; first compound 2 µM) was 0.921 and the relative viability ([4]; first compound 0.02 µM) was 0.648. It also gave a relative viability ([4]; first compound 0.06325 µM) of 0.753, a relative viability ([4]; first compound 0.2 µM) of 1 and a relative viability ([4]; first compound 0.6325 µM) of 0.778. The relative viability ([4]; first compound 2 µM) was 0.712.

In the case of SW 1573, the relative viability ([1]; first compound 0.6325 µM) is reported as 0.803, the relative viability ([1]; first compound 2 µM) is reported as 0.745 and the relative viability ([1]; first compound 6.325 µM) is reported as 0.189. For the same cell line, the relative viability ([1]; first compound 20 µM) was 0.162, the relative viability ([2]; first compound 0.02 µM) was 0.93 and the relative viability ([2]; first compound 0.06325 µM) was 0.759. For the same cell line, the relative viability ([2]; first compound 0.2 µM) was 0.841, the relative viability ([2]; first compound 0.6325 µM) was 0.918 and the relative viability ([2]; first compound 2 µM) was 0.995. It also gave a relative viability ([3]; first compound 0.02 µM) of 1.06, a relative viability ([3]; first compound 0.06325 µM) of 1.09 and a relative viability ([3]; first compound 0.2 µM) of 0.976. For the same cell line, the relative viability ([3]; first compound 0.6325 µM) was 1.14, the relative viability ([3]; first compound 2 µM) was 0.994 and the relative viability ([4]; first compound 0.02 µM) was 0.798. The relative viability ([4]; first compound 0.06325 µM) was 0.743, the relative viability ([4]; first compound 0.2 µM) was 0.752 and the relative viability ([4]; first compound 0.6325 µM) was 0.416. For the same cell line, the relative viability ([4]; first compound 2 µM) was 0.695.

For NCI-H838, the relative viability ([1]; first compound 0.6325 µM) was 0.986, the relative viability ([1]; first compound 2 µM) was 0.588 and the relative viability ([1]; first compound 6.325 µM) was 0.583. For the same cell line, the relative viability ([1]; first compound 20 µM) was 0.149, the relative viability ([2]; first compound 0.02 µM) was 1.05 and the relative viability ([2]; first compound 0.06325 µM) was 0.993. The relative viability ([2]; first compound 0.2 µM) was 0.994, the relative viability ([2]; first compound 0.6325 µM) was 0.89 and the relative viability ([2]; first compound 2 µM) was 0.954. It also gave a relative viability ([3]; first compound 0.02 µM) of 0.902, a relative viability ([3]; first compound 0.06325 µM) of 0.844 and a relative viability ([3]; first compound 0.2 µM) of 0.925. For the same cell line, the relative viability ([3]; first compound 0.6325 µM) was 0.927, the relative viability ([3]; first compound 2 µM) was 0.911 and the relative viability ([4]; first compound 0.02 µM) was 0.807. For the same cell line, the relative viability ([4]; first compound 0.06325 µM) was 0.757, the relative viability ([4]; first compound 0.2 µM) was 0.884 and the relative viability ([4]; first compound 0.6325 µM) was 0.804. For the same cell line, the relative viability ([4]; first compound 2 µM) was 0.787.

For NCI-H661, the relative viability ([1]; first compound 0.6325 µM) was 0.701, the relative viability ([1]; first compound 2 µM) was 0.609 and the relative viability ([1]; first compound 6.325 µM) was 0.354. The relative viability ([1]; first compound 20 µM) was 0.285, the relative viability ([2]; first compound 0.02 µM) was 1.04 and the relative viability ([2]; first compound 0.06325 µM) was 0.995. It also gave a relative viability ([2]; first compound 0.2 µM) of 0.997, a relative viability ([2]; first compound 0.6325 µM) of 0.919 and a relative viability ([2]; first compound 2 µM) of 0.985. The relative viability ([3]; first compound 0.02 µM) was 0.384, the relative viability ([3]; first compound 0.06325 µM) was 0.417 and the relative viability ([3]; first compound 0.2 µM) was 0.482. It also gave a relative viability ([3]; first compound 0.6325 µM) of 0.453, a relative viability ([3]; first compound 2 µM) of 0.438 and a relative viability ([4]; first compound 0.02 µM) of 0.991. It also gave a relative viability ([4]; first compound 0.2 µM) of 1.02, a relative viability ([4]; first compound 0.6325 µM) of 0.948 and a relative viability ([4]; first compound 2 µM) of 0.903.
